According to PMC8955773 (Pharmaceuticals, 2022):
“And” between values parts separate entries of the source, which are not always exact repeats. Identical values can stand only once. “Also recorded” adds a separate entry of the source. Like-named read-outs stand apart in the source and are kept apart here.

How the values were obtained:
[1] = target: T1, Butyrylcholinesterase (EC 3.1.1.8, BChE) from equine serum (eqBChE) (Equus caballus, UniProt P81908)
T1 construct: Butyrylcholinesterase (EC 3.1.1.8, BChE) was from equine serum (eqBChE) (Sigma-Aldrich); purchased Sigma-Aldrich; host or cells: equine serum

[2] = target: T1, Butyrylcholinesterase (EC 3.1.1.8, BChE) from equine serum (eqBChE); assay: Butyrylcholinesterase inhibition, Ellman's method; type: biochemical; conditions: for IC50: eqBChE, BTCI substrate, pH 8.0, 37 °C, mean ± SD of three independent experiments
Protocol: The effect of the benzofuran derivatives was evaluated on the commercial enzyme from an animal source due to its low cost and remarkable similarity with the human enzyme.
The cholinesterase inhibition activity was executed using Ellman’s method, as previously described with slight modifications.
S-Butyrylthiocholine iodide (BTCI) and 5,5′-dithiobis-(2-nitrobenzoic) acid (DTNB) (Merck/Sigma-Aldrich) were used for the determination of the BChE activity. Butyrylcholinesterase (EC 3.1.1.8, BChE) was from equine serum (eqBChE) (Sigma-Aldrich). We used 96-well plates for analysis, to each well we added 70 μL phosphate-buffered (0.1 M, pH 8.0), 4 μL different concentration of the tested compounds or dimethyl sulfoxide (for control experiment), 6 μL enzyme (final concentration 0.15 U/mL in buffer), and 100 μL DTNB (1.5 mM final). The solution was preincubated for 5 min at 37 °C, then 20 μL BTCI 1.5 mM solution as the substrate was added to the reaction mixture. The absorbance change was measured at 405 nm, with a microplate reader FLUOstar OPTIMA (BMG Labtech, Offenburg, Germany). […] Each experiment was done in triplicate.
The statistical significance of differences was evaluated using one-way analysis of variation (one-way ANOVA), and Tukey’s multiple comparisons. Results were expressed as mean ± standard deviation (SD), and statistically significant differences were evaluated with p < 0.001 as a minimal significance level.

[3] = 2-phenylbenzofurans without spacer; cited from earlier work
[4] = read-out: IC50, inhibitory effect on BChE activity

T1 sequence (P81908 whole entry): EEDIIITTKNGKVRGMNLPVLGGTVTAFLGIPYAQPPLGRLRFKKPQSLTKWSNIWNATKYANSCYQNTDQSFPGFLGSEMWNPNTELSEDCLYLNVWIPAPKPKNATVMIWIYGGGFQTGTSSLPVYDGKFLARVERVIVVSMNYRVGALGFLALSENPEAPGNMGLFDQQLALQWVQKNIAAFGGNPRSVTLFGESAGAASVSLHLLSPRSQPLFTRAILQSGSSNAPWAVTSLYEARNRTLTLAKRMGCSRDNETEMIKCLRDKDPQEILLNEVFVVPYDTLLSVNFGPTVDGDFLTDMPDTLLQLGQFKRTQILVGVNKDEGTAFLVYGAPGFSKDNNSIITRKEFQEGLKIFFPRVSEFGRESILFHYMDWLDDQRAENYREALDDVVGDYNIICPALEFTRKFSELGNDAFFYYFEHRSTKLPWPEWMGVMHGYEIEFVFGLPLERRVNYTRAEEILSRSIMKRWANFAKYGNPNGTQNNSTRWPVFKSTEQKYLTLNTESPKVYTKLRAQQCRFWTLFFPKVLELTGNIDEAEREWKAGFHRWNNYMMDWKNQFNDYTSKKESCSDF

Row | Structure (SMILES) | IC50 [2, 4] | other results
1 | Oc1ccc(-c2cc3cc(Br)ccc3o2)cc1 [Compound 9A] |  | BChE inhibitory activity (in words) [1, 3]: no activity; also recorded: negligible inhibitory activity; also recorded: no BChE inhibition; IC50 ([1]; read-out: IC50, inhibitory effect on BChE activity; 2-phenylbenzofurans given for comparison; cited from earlier work): > 100 µM
2 | Oc1ccc(Cc2cc3cc(Br)ccc3o2)cc1 [Compound 9B, 5-bromo-2-(4-hydroxybenzyl)benzofuran] | 2.93 µM and 2.9 µM | inhibitory activity, fold higher than 14A ([2]; BChE, ratio of IC50 values): about 4 fold; inhibitory activity, times higher than galantamine ([2]; BChE, ratio of IC50 values): 10 times
3 | Oc1ccc(-c2cc3cccc(Br)c3o2)cc1 [Compound 10A] |  | BChE inhibitory activity (in words) [1, 3]: negligible inhibitory activity
4 | Oc1ccc(Cc2cc3cccc(Br)c3o2)cc1 [Compound 10B] | 32.6 ± 2.04 µM | 
5 | Oc1ccc(-c2cc3cc(Cl)ccc3o2)cc1 [Compound 11A] |  | IC50 ([1]; 2-phenylbenzofurans given for comparison; read-out: IC50, inhibitory effect on BChE activity; cited from earlier work): > 100 µM
6 | Oc1ccc(Cc2cc3cc(Cl)ccc3o2)cc1 [Compound 11B] | 55.7 ± 0.8 µM | 
7 | Oc1ccc(Cc2cc3cccc(Cl)c3o2)cc1 [Compound 12B] | 43 ± 5.65 µM | 
8 | Oc1cccc(-c2cc3cc(Br)ccc3o2)c1 [Compound 13A] |  | IC50 ([2]; IC50, inhibitory effect on BChE activity): 10.6 ± 1.65 µM
9 | Oc1cccc(Cc2cc3cc(Br)ccc3o2)c1 [Compound 13B] | 39.9 ± 4.31 µM | 
10 | Oc1cccc(Cc2cc3cccc(Br)c3o2)c1 [Compound 14B] | 31.37 ± 0.15 µM | 
11 | Oc1cccc(Cc2cc3cc(Cl)ccc3o2)c1 [Compound 15B, 5-chloro-2-(3-hydroxybenzyl)benzofuran] | 27.8 ± 3.07 µM | 
12 | Oc1cccc(Cc2cc3cccc(Cl)c3o2)c1 [Compound 16B] | 61.7 ± 5.9 µM | 
